Reference: publication PMC10058238 (Science Advances, 2023)
Blank lines part the entries; values can stand above or below the compound they belong to.

How the values were obtained:
Format in all cases: biochemical
[1] = target: T1, AtSPT-ORM1 complex (LCB1, LCB2a, SPTssa, ORM1) (Arabidopsis thaliana, UniProt Q94IB8+Q9C5I0+Q9LSZ9); test: SPT activity, DTNB detection of CoA-SH release, […] nm
T1 construct: full-length codon-optimized cDNAs; N-terminal Flag on SPTssa, other chains untagged; HEK293F, GDN; dimer of 1:1:1:1 protomers; endogenous ceramide copurifies; with Long chain base biosynthesis protein 1; Serine palmitoyltransferase small subunit A

[2] = target: T2, AtSPT-ORM1 complex (LCB1, LCB2a, SPTssa, ORM1) (Arabidopsis thaliana, UniProt Q94IB8+Q9C5I0+Q9LSZ9, Q9C5I0:S67R); test: as above
T2 construct: full-length codon-optimized cDNAs; N-terminal Flag on SPTssa, other chains untagged; HEK293F, GDN; dimer of 1:1:1:1 protomers; endogenous ceramide copurifies; with Long chain base biosynthesis protein 1; Serine palmitoyltransferase small subunit A

[3] = target: T3, AtSPT-ORM1 complex (LCB1, LCB2a, SPTssa, ORM1) (Arabidopsis thaliana, UniProt Q94IB8+Q9C5I0+Q9LSZ9, Q9C5I0:W88R); test: as above; conditions: saturating 100 mM L-serine, 100 μM palmitoyl-CoA, 25 μM PLP, pH 7.5, 30 °C; ceramide site
T3 construct: full-length codon-optimized cDNAs; N-terminal Flag on SPTssa, other chains untagged; HEK293F, GDN; dimer of 1:1:1:1 protomers; endogenous ceramide copurifies; with Long chain base biosynthesis protein 1; Serine palmitoyltransferase small subunit A

[4] = target: T4, AtSPT-ORM1 complex (LCB1, LCB2a, SPTssa, ORM1) (Arabidopsis thaliana, UniProt Q94IB8+Q9C5I0+Q9LSZ9, Q9LSZ9:DEL2-5); test: as above
T4 construct: full-length codon-optimized cDNAs; N-terminal Flag on SPTssa, other chains untagged; HEK293F, GDN; dimer of 1:1:1:1 protomers; endogenous ceramide copurifies; with Long chain base biosynthesis protein 1; Serine palmitoyltransferase small subunit A

[5] = target: T5, AtSPT-ORM1 complex (LCB1, LCB2a, SPTssa, ORM1) (Arabidopsis thaliana, UniProt Q94IB8+Q9C5I0+Q9LSZ9, Q9C5I0:W20R); test: as above; conditions: saturating 100 mM L-serine, 100 μM palmitoyl-CoA, 25 μM PLP, pH 7.5, 30 °C; ceramide site
T5 construct: full-length codon-optimized cDNAs; N-terminal Flag on SPTssa, other chains untagged; HEK293F, GDN; dimer of 1:1:1:1 protomers; endogenous ceramide copurifies; with Long chain base biosynthesis protein 1; Serine palmitoyltransferase small subunit A

[6] = target: T6, AtSPT-ORM1 complex (LCB1, LCB2a, SPTssa, ORM1) (Arabidopsis thaliana, UniProt Q94IB8+Q9C5I0+Q9LSZ9, Q9C5I0:DEL2-8); test: as above
T6 construct: full-length codon-optimized cDNAs; N-terminal Flag on SPTssa, other chains untagged; HEK293F, GDN; dimer of 1:1:1:1 protomers; endogenous ceramide copurifies; with Long chain base biosynthesis protein 1; Serine palmitoyltransferase small subunit A

[7] = target: T7, AtSPT-ORM1 complex (LCB1, LCB2a, SPTssa, ORM1) (Arabidopsis thaliana, UniProt Q94IB8+Q9C5I0+Q9LSZ9, Q9C5I0:DEL2-14); test: as above; conditions: saturating 100 mM L-serine, 100 μM palmitoyl-CoA, 25 μM PLP, pH 7.5, 30 °C; ceramide site
T7 construct: full-length codon-optimized cDNAs; N-terminal Flag on SPTssa, other chains untagged; HEK293F, GDN; dimer of 1:1:1:1 protomers; endogenous ceramide copurifies; with Long chain base biosynthesis protein 1; Serine palmitoyltransferase small subunit A

[8] = target: T8, AtSPT-ORM1 complex (LCB1, LCB2a, SPTssa, ORM1) (Arabidopsis thaliana, UniProt Q94IB8+Q9C5I0+Q9LSZ9, Q9C5I0:N17A); test: as above
T8 construct: full-length codon-optimized cDNAs; N-terminal Flag on SPTssa, other chains untagged; HEK293F, GDN; dimer of 1:1:1:1 protomers; endogenous ceramide copurifies; with Long chain base biosynthesis protein 1; Serine palmitoyltransferase small subunit A

[9] = target: T9, AtSPT-ORM1 complex (LCB1, LCB2a, SPTssa, ORM1) (Arabidopsis thaliana, UniProt Q94IB8+Q9C5I0+Q9LSZ9, Q9C5I0:N17A/Q9C5I0:S67R); test: as above; conditions: saturating 100 mM L-serine, 100 μM palmitoyl-CoA, 25 μM PLP, pH 7.5, 30 °C; ceramide site
T9 construct: full-length codon-optimized cDNAs; N-terminal Flag on SPTssa, other chains untagged; HEK293F, GDN; dimer of 1:1:1:1 protomers; endogenous ceramide copurifies; with Long chain base biosynthesis protein 1; Serine palmitoyltransferase small subunit A

[10] = target: T10, AtSPT complex (LCB1, LCB2a, SPTssa) (Arabidopsis thaliana, UniProt Q94IB8+Q9LSZ9); test: as above; conditions: 100 mM L-serine, 100 μM palmitoyl-CoA, 25 μM PLP, pH 7.5, 30 °C; active site in LCB2a/LCB1
T10 construct: full-length codon-optimized cDNAs; N-terminal Flag on SPTssa, other chains untagged; HEK293F, GDN; without ORM1; with Serine palmitoyltransferase small subunit A
T10 sequence (Q9LSZ9 1-489): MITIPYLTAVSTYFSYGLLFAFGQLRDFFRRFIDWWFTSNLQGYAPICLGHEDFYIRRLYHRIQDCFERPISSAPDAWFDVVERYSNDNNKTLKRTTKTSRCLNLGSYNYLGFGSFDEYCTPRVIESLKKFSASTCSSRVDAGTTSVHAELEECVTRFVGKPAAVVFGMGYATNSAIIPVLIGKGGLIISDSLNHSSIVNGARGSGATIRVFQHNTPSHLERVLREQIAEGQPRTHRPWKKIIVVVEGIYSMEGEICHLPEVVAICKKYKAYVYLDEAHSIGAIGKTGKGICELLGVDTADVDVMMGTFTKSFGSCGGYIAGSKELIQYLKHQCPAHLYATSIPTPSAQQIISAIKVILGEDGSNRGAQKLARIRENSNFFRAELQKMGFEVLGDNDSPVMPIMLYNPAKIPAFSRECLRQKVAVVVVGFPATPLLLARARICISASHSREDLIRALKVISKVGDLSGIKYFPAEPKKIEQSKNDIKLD
T10 sequence (Q94IB8 1-482): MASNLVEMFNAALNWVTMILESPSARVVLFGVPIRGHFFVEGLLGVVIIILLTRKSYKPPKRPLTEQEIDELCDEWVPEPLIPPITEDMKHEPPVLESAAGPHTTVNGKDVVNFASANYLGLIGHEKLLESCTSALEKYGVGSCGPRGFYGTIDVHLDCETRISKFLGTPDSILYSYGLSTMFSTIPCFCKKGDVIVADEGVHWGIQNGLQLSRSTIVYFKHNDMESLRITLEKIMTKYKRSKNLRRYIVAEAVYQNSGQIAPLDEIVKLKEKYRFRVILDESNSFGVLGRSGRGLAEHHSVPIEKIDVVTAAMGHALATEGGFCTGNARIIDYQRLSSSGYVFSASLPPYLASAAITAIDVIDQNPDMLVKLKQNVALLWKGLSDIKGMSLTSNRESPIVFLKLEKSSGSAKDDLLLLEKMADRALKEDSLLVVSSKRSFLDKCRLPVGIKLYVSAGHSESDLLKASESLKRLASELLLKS
T10 sequence (A8MSB8 1-56 partner): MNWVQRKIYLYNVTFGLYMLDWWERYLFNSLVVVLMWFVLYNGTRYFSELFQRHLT

[11] = target: T1, AtSPT-ORM1 complex (LCB1, LCB2a, SPTssa, ORM1); test: as above; conditions: 100 mM L-serine, 100 μM palmitoyl-CoA, 25 μM PLP, pH 7.5, 30 °C; active site in LCB2a/LCB1
[12] = target: T7, AtSPT-ORM1 complex (LCB1, LCB2a, SPTssa, ORM1); test: SPT activity, DTNB detection of CoA-SH release, […] nm; sigmoidal fit; conditions: 100 mM L-serine, 25 μM PLP, pH 7.5, 30 °C; active site in LCB2a/LCB1
[13] = target: T8, AtSPT-ORM1 complex (LCB1, LCB2a, SPTssa, ORM1); test: as above; conditions: 100 mM L-serine, 25 μM PLP, pH 7.5, 30 °C; active site in LCB2a/LCB1

T1 sequence (Q9C5I0 1-157, one chain of several): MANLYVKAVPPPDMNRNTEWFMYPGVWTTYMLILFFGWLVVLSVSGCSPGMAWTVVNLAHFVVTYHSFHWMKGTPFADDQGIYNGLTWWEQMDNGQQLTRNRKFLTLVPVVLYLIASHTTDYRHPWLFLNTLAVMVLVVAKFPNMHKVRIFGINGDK
T8 sequence (Q9C5I0 1-157 N17A, one chain of several): as the sequence (Q9C5I0 1-157, one chain of several) above, with N17A counted along it
T7 sequence (Q9C5I0 entry or part of it DEL2-14, one chain of several): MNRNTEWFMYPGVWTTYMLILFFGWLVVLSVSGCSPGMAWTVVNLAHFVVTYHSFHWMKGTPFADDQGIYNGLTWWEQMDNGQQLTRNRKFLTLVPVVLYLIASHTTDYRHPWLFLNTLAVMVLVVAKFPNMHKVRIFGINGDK
T4 sequence (Q9LSZ9 with tags, fused parts or gaps DEL2-5, one chain of several): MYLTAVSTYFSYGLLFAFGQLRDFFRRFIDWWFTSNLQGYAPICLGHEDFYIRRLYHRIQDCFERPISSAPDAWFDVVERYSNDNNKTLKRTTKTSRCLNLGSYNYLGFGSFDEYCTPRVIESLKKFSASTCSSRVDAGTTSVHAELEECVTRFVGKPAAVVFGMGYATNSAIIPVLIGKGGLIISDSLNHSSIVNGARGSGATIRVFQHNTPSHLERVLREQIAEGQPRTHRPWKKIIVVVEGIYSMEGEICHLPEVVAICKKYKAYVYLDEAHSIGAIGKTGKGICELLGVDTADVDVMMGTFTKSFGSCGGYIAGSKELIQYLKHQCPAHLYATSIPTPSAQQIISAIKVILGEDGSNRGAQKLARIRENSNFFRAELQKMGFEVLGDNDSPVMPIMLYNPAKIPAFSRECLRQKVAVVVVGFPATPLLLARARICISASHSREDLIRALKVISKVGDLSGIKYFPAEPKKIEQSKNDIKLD
T4 sequence (Q9C5I0 1-157, stated change not applied, one chain of several): as the sequence (Q9C5I0 1-157, one chain of several) above
T5 sequence (Q9C5I0 1-157 W20R, one chain of several): as the sequence (Q9C5I0 1-157, one chain of several) above, with W20R counted along it
T6 sequence (Q9C5I0 entry or part of it DEL2-8, one chain of several): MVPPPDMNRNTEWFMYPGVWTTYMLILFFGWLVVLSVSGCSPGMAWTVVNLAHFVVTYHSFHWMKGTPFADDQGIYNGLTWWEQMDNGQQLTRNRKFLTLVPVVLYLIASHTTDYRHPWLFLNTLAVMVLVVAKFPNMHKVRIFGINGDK
T3 sequence (Q9C5I0 1-157 W88R, one chain of several): as the sequence (Q9C5I0 1-157, one chain of several) above, with W88R counted along it
T2 sequence (Q9C5I0 1-157 S67R, one chain of several): as the sequence (Q9C5I0 1-157, one chain of several) above, with S67R counted along it
T9 sequence (Q9C5I0 1-157 N17A/S67R, one chain of several): as the sequence (Q9C5I0 1-157, one chain of several) above, with N17A, S67R counted along it

IC50 [1]: 3500 nM
Structure (SMILES): CCCCCCCCCCCCC/C=C/[C@@H](O)[C@H](CO)NC(=O)CCCCC [C6-ceramide]

IC50 [2]: 1260 nM | IC50 [4]: 990 nM | IC50 [1]: 320 nM | IC50 [6]: 1280 nM | IC50 [8]: 1680 nM
Structure (SMILES): CCCCCCCCCCCCCC[C@@H](O)[C@@H](O)[C@H](CO)NC(=O)CCCCC [C6-phytoceramide]
SPT activity, DTNB detection of CoA-SH release, 412 nm [3]: ORM1-W20R or ORM1-W88R mutation also virtually abolished the inhibitory effect of C6-phytoceramide | SPT activity, DTNB detection of CoA-SH release, 412 nm [5]: ORM1-W20R or ORM1-W88R mutation also virtually abolished the inhibitory effect of C6-phytoceramide | SPT activity, DTNB detection of CoA-SH release, 412 nm [7]: basically eliminated the inhibitory effect of C6-phytoceramide | SPT activity, DTNB detection of CoA-SH release, 412 nm [9]: ORM1-N17A/S67R double mutation nearly eliminated the inhibitory effect of C6-phytoceramide

Structure (SMILES): CCCCCCC(=O)CCCCCC/C=C/C[C@@H](O)[C@H](O)[C@@](N)(CO)C(=O)O [myriocin]
inhibition at 10 μM [10]: can be repressed by a potent SPT-specific inhibitor myriocin | inhibition at 10 μM [11]: can be repressed by a potent SPT-specific inhibitor myriocin

Structure (SMILES): CCCCCCCCCCCCCCCC(=O)SCCNC(=O)CCNC(=O)[C@H](O)C(C)(C)COP(=O)(O)OP(=O)(O)OC[C@H]1O[C@@H](n2cnc3c(N)ncnc32)[C@H](O)[C@@H]1OP(=O)(O)O [palmitoyl-CoA]
Khalf [12]: the Khalf value of the AtSPT-ORM1 (ORM1-ΔN14) variant toward palmitoyl-CoA was much lower | Khalf [13]: the Khalf value of the variant toward palmitoyl-CoA was nearly seven times as high
